Measurements from article PMC6120666 (The EMBO Journal, 2018).

What was measured:
Assay in all cases: Drug affinity chromatography with c-ponatinib and LC-MS/MS (ponatinib interactome)
Assay type in all cases: binding
[1] = biological target: T1, proteins of U2OS cell lysate (Homo sapiens, UniProt O00303); details: EIF3F, Eukaryotic translation initiation factor 3 subunit F
T1 construct: Proteins enriched by c-ponatinib from U2OS cell lysate; endogenous in cells; host or cells: U2OS cell lysate
Outline: (§1)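 U2OS cell lysate in NP-40 lysis buffer (2 mg protein per pulldown) was incubated with amine-derivatized NHS beads for 2 h at 4 °C. Bound proteins were washed, eluted with 100 mM formic acid, reduced, alkylated and trypsin-digested, then identified by nano-UPLC–MS/MS on Orbitrap instruments with a 60 min gradient.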

[2] = biological target: T2, proteins of U2OS cell lysate (Homo sapiens, UniProt O43809); details: NUDT21, Cleavage and polyadenylation specificity factor subunit 5
T2 construct: Proteins enriched by c-ponatinib from U2OS cell lysate; endogenous in cells; host or cells: U2OS cell lysate
T2 sequence (O43809 whole entry): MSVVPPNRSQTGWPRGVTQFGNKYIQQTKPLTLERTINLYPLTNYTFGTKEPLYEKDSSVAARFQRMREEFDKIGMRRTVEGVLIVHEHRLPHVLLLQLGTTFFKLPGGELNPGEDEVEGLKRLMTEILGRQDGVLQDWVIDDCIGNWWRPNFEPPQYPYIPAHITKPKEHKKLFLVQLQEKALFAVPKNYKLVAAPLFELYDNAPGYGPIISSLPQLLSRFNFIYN
Outline: as §1

[3] = biological target: T3, proteins of U2OS cell lysate (Homo sapiens, UniProt O95347); details: SMC2, Structural maintenance of chromosomes protein 2
T3 construct: Proteins enriched by c-ponatinib from U2OS cell lysate; endogenous in cells; host or cells: U2OS cell lysate
T3 sequence (O95347 whole entry): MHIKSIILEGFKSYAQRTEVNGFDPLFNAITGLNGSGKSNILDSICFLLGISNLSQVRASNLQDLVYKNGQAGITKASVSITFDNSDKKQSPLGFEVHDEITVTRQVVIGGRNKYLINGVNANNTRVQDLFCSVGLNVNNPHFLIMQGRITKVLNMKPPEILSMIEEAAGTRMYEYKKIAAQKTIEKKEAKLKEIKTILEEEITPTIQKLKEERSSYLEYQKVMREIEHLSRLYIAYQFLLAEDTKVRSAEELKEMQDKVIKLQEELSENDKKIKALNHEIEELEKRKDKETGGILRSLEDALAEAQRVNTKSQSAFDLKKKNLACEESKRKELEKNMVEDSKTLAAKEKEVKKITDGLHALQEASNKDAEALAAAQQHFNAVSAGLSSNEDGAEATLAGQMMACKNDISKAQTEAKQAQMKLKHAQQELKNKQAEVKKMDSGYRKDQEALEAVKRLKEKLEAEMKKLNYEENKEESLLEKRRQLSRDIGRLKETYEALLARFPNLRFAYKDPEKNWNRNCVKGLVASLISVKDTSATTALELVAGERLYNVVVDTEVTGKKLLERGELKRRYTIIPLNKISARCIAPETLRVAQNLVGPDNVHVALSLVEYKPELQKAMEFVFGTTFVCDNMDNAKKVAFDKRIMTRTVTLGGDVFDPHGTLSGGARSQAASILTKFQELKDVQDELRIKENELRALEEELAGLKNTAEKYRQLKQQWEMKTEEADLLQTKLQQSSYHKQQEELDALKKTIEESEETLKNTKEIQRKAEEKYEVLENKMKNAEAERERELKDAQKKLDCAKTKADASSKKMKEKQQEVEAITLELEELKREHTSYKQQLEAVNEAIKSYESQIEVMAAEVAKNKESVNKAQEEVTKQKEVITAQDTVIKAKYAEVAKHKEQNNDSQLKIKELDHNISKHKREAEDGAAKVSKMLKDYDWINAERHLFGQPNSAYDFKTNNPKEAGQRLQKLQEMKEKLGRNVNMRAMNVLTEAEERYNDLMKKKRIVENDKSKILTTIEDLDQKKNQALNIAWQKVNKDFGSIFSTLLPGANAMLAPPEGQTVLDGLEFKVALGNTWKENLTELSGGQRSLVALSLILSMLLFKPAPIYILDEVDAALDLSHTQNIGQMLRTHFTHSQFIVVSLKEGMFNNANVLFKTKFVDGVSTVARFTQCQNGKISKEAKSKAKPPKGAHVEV
Outline: as §1

[4] = biological target: T4, proteins of U2OS cell lysate (Homo sapiens, UniProt P05556); details: ITGB1, Integrin beta-1
T4 construct: Proteins enriched by c-ponatinib from U2OS cell lysate; endogenous in cells; host or cells: U2OS cell lysate
Outline: as §1

[5] = biological target: T5, proteins of U2OS cell lysate (Homo sapiens, UniProt P07437); details: TUBB;TUBB2A, Tubulin beta chain
T5 construct: Proteins enriched by c-ponatinib from U2OS cell lysate; endogenous in cells; host or cells: U2OS cell lysate
Outline: as §1

[6] = biological target: T6, proteins of U2OS cell lysate (Homo sapiens, UniProt P17844); details: DDX5, Probable ATP-dependent RNA helicase DDX5
T6 construct: Proteins enriched by c-ponatinib from U2OS cell lysate; endogenous in cells; host or cells: U2OS cell lysate
Outline: as §1

[7] = biological target: T7, proteins of U2OS cell lysate (Homo sapiens, UniProt P35579); details: MYH9, Myosin-9
T7 construct: Proteins enriched by c-ponatinib from U2OS cell lysate; endogenous in cells; host or cells: U2OS cell lysate
Outline: as §1

[8] = biological target: T8, proteins of U2OS cell lysate (Homo sapiens, UniProt P35998); details: PSMC2, 26S protease regulatory subunit 7
T8 construct: Proteins enriched by c-ponatinib from U2OS cell lysate; endogenous in cells; host or cells: U2OS cell lysate
T8 sequence (P35998 whole entry): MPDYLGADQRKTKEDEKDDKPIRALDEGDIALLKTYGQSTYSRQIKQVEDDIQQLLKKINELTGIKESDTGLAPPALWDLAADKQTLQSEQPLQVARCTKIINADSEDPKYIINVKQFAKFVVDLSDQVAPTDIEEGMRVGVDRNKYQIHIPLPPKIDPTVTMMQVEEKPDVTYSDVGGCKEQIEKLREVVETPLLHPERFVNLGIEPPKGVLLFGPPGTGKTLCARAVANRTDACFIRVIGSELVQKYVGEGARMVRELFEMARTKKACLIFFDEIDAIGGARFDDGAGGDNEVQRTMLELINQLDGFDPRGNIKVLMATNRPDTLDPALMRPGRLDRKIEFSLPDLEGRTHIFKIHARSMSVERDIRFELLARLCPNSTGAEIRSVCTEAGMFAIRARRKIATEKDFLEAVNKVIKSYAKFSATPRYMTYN
Outline: as §1

[9] = biological target: T9, proteins of U2OS cell lysate (Homo sapiens, UniProt P47897); details: QARS, Glutamine--tRNA ligase
T9 construct: Proteins enriched by c-ponatinib from U2OS cell lysate; endogenous in cells; host or cells: U2OS cell lysate
Outline: as §1

[10] = biological target: T10, proteins of U2OS cell lysate (Homo sapiens, UniProt P49773); details: HINT1, Histidine triad nucleotide-binding protein 1
T10 construct: Proteins enriched by c-ponatinib from U2OS cell lysate; endogenous in cells; host or cells: U2OS cell lysate
T10 sequence (P49773 whole entry): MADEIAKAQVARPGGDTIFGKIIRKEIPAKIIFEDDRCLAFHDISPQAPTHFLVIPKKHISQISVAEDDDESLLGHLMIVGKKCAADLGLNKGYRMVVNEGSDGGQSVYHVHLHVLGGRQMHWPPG
Outline: as §1

[11] = biological target: T11, proteins of U2OS cell lysate (Homo sapiens, UniProt P50990); details: CCT8, T-complex protein 1 subunit theta
T11 construct: Proteins enriched by c-ponatinib from U2OS cell lysate; endogenous in cells; host or cells: U2OS cell lysate
T11 sequence (P50990 whole entry): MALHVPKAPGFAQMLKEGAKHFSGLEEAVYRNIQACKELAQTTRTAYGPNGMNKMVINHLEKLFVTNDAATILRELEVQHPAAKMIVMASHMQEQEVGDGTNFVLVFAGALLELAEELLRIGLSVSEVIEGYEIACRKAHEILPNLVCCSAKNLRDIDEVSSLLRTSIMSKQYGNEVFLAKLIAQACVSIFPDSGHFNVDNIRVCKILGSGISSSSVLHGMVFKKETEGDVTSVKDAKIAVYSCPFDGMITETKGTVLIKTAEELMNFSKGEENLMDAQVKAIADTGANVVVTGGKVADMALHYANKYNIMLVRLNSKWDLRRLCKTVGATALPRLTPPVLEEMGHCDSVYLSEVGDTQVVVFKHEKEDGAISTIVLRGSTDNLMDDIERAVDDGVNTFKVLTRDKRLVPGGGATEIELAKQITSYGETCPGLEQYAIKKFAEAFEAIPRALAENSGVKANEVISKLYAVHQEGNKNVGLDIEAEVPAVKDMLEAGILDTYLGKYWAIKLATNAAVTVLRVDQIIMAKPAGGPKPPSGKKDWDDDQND
Outline: as §1

[12] = biological target: T12, proteins of U2OS cell lysate (Homo sapiens, UniProt P55072); details: VCP, Transitional endoplasmic reticulum ATPase
T12 construct: Proteins enriched by c-ponatinib from U2OS cell lysate; endogenous in cells; host or cells: U2OS cell lysate
Outline: as §1

[13] = biological target: T13, proteins of U2OS cell lysate (Homo sapiens, UniProt P61247); details: RPS3A, 40S ribosomal protein S3a
T13 construct: Proteins enriched by c-ponatinib from U2OS cell lysate; endogenous in cells; host or cells: U2OS cell lysate
Outline: as §1

[14] = biological target: T14, proteins of U2OS cell lysate (Homo sapiens, UniProt P78527); details: PRKDC, DNA-dependent protein kinase catalytic subunit
T14 construct: Proteins enriched by c-ponatinib from U2OS cell lysate; endogenous in cells; host or cells: U2OS cell lysate
Outline: as §1

[15] = biological target: T15, proteins of U2OS cell lysate (Homo sapiens, UniProt Q01082); details: SPTBN1, Spectrin beta chain, non-erythrocytic 1
T15 construct: Proteins enriched by c-ponatinib from U2OS cell lysate; endogenous in cells; host or cells: U2OS cell lysate
Outline: as §1

[16] = biological target: T16, proteins of U2OS cell lysate (Homo sapiens, UniProt Q15021); details: NCAPD2, Condensin complex subunit 1
T16 construct: Proteins enriched by c-ponatinib from U2OS cell lysate; endogenous in cells; host or cells: U2OS cell lysate
T16 sequence (Q15021 whole entry): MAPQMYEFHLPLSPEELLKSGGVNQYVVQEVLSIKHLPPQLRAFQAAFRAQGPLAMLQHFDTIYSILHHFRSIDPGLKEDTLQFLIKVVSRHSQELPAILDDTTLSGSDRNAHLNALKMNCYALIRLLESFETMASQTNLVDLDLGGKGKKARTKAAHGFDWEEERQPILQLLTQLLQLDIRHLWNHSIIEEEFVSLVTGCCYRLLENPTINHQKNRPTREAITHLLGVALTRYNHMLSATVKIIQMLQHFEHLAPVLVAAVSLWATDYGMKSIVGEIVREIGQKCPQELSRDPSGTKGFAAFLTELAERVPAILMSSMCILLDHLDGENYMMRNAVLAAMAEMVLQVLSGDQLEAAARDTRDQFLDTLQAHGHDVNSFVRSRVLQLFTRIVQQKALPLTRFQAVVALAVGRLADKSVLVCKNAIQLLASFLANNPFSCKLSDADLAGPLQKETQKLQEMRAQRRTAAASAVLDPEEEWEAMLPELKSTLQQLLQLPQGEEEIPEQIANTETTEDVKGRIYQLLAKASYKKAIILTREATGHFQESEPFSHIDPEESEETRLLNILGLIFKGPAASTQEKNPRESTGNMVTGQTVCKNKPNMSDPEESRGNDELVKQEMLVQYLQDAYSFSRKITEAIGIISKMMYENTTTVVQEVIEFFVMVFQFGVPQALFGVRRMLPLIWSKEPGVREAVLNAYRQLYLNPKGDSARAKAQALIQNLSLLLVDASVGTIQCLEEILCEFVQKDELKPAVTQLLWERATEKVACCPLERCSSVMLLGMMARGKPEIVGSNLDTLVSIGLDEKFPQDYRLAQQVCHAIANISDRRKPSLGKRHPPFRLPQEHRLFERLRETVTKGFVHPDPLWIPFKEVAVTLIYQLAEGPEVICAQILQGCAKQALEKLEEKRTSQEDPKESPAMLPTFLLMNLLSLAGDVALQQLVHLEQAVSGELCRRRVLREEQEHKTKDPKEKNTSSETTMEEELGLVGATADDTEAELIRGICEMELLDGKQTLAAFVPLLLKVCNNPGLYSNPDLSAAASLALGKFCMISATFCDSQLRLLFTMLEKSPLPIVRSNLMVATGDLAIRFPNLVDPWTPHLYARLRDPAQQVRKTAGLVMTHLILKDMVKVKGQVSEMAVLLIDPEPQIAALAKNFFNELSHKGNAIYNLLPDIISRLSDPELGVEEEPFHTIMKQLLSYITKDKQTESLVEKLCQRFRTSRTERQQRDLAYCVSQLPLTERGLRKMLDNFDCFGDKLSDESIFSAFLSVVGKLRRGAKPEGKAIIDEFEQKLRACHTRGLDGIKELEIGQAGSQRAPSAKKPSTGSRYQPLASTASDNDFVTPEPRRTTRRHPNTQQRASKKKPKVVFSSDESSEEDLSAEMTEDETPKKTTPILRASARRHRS
Outline: as §1

[17] = biological target: T17, proteins of U2OS cell lysate (Homo sapiens, UniProt Q92522); details: H1FX, Histone H1x
T17 construct: Proteins enriched by c-ponatinib from U2OS cell lysate; endogenous in cells; host or cells: U2OS cell lysate
T17 sequence (Q92522 whole entry): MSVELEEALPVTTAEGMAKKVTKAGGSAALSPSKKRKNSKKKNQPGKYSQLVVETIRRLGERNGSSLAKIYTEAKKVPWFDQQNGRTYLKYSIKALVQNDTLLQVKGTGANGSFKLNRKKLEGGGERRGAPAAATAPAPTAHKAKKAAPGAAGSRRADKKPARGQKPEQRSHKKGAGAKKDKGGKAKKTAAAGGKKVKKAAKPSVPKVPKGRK
Outline: as §1

[18] = biological target: T18, proteins of U2OS cell lysate (Homo sapiens, UniProt Q92973); details: TNPO1, Transportin-1
T18 construct: Proteins enriched by c-ponatinib from U2OS cell lysate; endogenous in cells; host or cells: U2OS cell lysate
T18 sequence (Q92973 whole entry): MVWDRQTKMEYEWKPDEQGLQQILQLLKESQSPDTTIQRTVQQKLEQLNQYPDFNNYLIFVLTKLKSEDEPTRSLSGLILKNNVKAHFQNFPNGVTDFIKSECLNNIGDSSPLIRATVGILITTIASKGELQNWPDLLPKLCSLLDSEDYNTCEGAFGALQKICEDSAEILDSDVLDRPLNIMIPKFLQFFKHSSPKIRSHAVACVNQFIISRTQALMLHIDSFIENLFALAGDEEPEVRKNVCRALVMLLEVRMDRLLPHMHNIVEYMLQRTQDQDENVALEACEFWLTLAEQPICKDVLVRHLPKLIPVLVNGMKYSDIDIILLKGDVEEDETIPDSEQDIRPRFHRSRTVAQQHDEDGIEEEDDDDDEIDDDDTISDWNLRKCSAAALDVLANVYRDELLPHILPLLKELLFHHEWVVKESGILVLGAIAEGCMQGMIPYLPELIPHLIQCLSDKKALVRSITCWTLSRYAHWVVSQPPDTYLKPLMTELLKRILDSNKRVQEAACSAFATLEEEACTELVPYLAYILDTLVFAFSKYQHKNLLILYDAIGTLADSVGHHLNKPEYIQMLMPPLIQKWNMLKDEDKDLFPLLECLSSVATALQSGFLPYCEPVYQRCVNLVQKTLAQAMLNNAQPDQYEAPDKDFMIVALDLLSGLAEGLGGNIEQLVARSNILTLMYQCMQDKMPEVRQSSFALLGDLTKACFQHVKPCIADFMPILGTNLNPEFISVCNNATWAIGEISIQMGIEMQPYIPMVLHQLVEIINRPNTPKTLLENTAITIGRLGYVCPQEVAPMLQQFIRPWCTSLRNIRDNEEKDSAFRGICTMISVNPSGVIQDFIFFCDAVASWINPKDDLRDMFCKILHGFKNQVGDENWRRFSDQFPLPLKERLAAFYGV
Outline: as §1

[19] = biological target: T19, proteins of U2OS cell lysate (Homo sapiens, UniProt Q96RR4); details: CAMKK2, Calcium/calmodulin-dependent protein kinase kinase 2
T19 construct: Proteins enriched by c-ponatinib from U2OS cell lysate; endogenous in cells; host or cells: U2OS cell lysate
Outline: as §1

Q: How did the “Average LFQ PON_WT” value [1] turn out when `Cc1ccc(C(=O)Nc2ccc(CN3CCN(C)CC3)c(C(F)(F)F)c2)cc1C#Cc1cnc2cccnn12` [PON] was run?
A: 23.4858

Q: And the “Average LFQ PON_WT” value [2]?
A: 20.8271

Q: What about the “Average LFQ PON_WT” value [3] of the same compound?
A: 20.8973

Q: What about the “Average LFQ PON_WT” value [4] of the same compound?
A: 20.3187

Q: And the “Average LFQ PON_WT” value [5]?
A: 24.4278

Q: What about the “Average LFQ PON_WT” value [6] of the same compound?
A: 21.2715

Q: What about the “Average LFQ PON_WT” value [7] of the same compound?
A: 25.6681

Q: And the “Average LFQ PON_WT” value [8]?
A: 21.2631

Q: And the “Average LFQ PON_WT” value [9]?
A: 19.3053

Q: What about the “Average LFQ PON_WT” value [10] of the same compound?
A: 21.3958

Q: And the “Average LFQ PON_WT” value [11]?
A: 24.1007

Q: And the “Average LFQ PON_WT” value [12]?
A: 23.9947

Q: What about the “Average LFQ PON_WT” value [13] of the same compound?
A: 21.3119

Q: And the “Average LFQ PON_WT” value [14]?
A: 25.5794

Q: What about the “Average LFQ PON_WT” value [15] of the same compound?
A: 25.171

Q: And the “Average LFQ PON_WT” value [16]?
A: 21.331

Q: And the “Average LFQ PON_WT” value [17]?
A: 20.0616

Q: And the “Average LFQ PON_WT” value [18]?
A: 24.7772

Q: And the “Average LFQ PON_WT” value [19]?
A: 20.0519
